From patent US20230055961A1, “PENTAFLUOROBENZENESULFONAMIDE DERIVATIVES AND USES THEREOF” (Dunad Therapeutics Ltd., priority 2019, published 2023)

Key:
Assay type in all cases: biochemical
[1] = target: FGFR4 (Homo sapiens, UniProt P22455); assay: In vitro kinase inhibition studies (Table 9), FGFR4
[2] = target: BLK (Homo sapiens, UniProt P51451); assay: In vitro kinase inhibition studies (Table 13), BLK
[3] = target: T1, JAK3 (Homo sapiens, UniProt P52333); assay: In vitro kinase inhibition studies (Table 13), JAK3
T1 sequence (P52333 1-1124): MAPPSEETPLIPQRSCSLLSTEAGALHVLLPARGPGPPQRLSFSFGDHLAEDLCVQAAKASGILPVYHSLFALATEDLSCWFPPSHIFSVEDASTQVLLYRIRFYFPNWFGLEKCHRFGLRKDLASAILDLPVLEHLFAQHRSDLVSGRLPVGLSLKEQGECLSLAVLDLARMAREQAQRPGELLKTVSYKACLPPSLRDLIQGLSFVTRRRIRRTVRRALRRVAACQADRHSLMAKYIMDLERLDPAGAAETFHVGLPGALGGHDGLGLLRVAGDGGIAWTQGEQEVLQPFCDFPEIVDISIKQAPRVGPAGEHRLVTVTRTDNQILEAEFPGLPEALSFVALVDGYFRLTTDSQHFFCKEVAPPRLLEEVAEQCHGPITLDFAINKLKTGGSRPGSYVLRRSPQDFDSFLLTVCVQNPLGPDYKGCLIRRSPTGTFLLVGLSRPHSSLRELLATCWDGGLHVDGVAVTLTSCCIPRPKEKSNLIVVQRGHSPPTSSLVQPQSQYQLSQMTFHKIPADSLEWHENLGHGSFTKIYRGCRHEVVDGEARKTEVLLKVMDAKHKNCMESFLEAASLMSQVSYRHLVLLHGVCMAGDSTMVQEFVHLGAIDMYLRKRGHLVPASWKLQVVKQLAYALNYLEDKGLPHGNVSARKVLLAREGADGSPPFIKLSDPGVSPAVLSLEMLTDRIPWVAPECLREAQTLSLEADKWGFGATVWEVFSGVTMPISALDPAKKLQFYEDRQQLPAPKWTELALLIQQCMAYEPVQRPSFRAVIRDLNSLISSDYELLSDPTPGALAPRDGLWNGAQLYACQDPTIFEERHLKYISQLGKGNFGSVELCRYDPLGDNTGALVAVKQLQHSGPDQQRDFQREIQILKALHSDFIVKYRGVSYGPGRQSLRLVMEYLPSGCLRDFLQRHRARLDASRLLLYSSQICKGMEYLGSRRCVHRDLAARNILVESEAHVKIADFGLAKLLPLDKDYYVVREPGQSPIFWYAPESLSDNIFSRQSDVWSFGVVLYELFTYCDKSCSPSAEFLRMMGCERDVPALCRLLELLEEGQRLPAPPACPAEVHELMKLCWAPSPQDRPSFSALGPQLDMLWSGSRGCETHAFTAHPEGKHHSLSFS

[4] = target: CSK (Homo sapiens, UniProt P41240); assay: In vitro kinase inhibition studies (Table 13), CSK
[5] = target: EGFR L850R (Homo sapiens, UniProt P00533); assay: In vitro kinase inhibition studies (Table 13), EGFR L850R
Chain of EGFR L850R (P00533 whole entry L858R, form open): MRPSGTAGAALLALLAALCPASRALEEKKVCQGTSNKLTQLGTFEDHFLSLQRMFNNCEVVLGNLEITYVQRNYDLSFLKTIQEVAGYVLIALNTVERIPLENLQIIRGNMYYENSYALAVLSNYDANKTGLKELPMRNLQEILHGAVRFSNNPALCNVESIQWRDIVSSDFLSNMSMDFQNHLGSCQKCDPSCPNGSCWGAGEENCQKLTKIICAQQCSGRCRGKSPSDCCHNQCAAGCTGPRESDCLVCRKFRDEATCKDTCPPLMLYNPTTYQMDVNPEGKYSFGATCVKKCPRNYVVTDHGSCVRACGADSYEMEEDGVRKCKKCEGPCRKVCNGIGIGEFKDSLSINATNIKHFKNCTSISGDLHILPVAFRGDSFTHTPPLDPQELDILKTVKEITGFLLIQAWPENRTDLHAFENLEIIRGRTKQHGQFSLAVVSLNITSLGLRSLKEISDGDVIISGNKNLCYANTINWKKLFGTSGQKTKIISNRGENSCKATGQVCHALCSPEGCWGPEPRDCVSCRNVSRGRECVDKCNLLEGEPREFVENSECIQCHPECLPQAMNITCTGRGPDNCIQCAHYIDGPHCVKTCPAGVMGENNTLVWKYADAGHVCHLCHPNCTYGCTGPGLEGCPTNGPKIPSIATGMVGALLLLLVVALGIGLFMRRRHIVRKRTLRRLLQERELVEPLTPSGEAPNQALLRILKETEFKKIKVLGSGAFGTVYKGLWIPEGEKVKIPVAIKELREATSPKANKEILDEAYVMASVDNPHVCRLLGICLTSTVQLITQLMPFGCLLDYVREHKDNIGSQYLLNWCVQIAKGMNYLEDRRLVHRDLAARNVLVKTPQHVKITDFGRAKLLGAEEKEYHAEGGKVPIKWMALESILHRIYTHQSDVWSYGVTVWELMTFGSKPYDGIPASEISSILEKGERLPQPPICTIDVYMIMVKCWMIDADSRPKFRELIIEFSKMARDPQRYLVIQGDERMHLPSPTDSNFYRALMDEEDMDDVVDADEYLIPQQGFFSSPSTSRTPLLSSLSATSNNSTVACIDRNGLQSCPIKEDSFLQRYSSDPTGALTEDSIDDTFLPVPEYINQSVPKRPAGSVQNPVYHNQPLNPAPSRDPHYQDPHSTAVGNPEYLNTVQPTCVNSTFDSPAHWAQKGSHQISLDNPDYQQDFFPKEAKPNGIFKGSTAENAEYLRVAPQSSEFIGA

Chain of BLK (P51451 whole entry, species assumed): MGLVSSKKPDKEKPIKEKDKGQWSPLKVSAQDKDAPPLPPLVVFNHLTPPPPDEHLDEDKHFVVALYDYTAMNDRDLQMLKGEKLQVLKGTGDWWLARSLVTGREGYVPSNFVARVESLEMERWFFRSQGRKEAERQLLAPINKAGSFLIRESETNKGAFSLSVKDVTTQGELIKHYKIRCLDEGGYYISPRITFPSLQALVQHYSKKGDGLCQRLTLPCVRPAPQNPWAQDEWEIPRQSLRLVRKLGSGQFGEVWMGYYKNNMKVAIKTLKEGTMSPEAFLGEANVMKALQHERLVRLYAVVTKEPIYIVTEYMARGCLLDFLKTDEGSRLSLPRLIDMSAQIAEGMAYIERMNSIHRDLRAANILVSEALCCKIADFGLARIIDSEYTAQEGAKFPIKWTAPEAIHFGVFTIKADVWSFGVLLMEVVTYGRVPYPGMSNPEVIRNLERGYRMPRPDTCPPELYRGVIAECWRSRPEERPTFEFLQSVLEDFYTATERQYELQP
Chain of FGFR4 (P22455 22-802, species assumed): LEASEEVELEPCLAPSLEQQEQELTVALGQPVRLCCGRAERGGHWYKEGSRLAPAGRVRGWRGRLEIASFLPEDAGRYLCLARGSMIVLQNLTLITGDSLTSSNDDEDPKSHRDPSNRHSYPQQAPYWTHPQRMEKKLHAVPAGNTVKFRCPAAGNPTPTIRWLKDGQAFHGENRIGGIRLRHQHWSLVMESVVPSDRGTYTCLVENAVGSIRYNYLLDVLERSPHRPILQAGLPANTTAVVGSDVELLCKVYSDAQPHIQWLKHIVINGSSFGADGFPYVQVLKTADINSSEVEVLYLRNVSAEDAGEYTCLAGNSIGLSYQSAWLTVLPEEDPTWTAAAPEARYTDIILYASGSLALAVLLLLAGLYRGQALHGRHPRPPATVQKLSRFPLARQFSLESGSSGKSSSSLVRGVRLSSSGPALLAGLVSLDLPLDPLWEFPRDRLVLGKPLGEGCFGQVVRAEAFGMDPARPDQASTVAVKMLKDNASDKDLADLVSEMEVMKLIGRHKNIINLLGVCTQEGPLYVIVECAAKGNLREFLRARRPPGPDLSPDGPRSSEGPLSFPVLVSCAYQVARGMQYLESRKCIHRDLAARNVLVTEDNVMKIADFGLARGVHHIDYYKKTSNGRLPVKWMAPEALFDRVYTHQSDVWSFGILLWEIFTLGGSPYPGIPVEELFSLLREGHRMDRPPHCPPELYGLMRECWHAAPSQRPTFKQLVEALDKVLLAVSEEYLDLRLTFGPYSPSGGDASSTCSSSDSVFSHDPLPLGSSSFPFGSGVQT

IC50 [1]: 10 to 300 nM
IC50 [2]: 100 to 1000 nM
IC50 [3]: 100 to 1000 nM
IC50 [4]: 100 to 1000 nM
IC50 [5]: 100 to 1000 nM
SMILES: Nc1ncnc2c1c(-c1ccc(Oc3ccccc3)cc1)nn2[C@@H]1CCCN(S(=O)(=O)c2c(F)c(F)c(F)c(F)c2F)C1 [Compound 5-1, (R)-1-(1-((perfluorophenyl)sulfonyl)piperidin-3-yl)-3-(4-phenoxyphenyl)-1H-pyrazolo[3,4-d]pyrimidin-4-amine]
